Reference: the NIST ThermoML archive (doi:10.1021/acs.jced.5b00986)
± gives the expanded uncertainty stated by the source.

Details: Liquid, Dynamic light scattering

Row | thermal diffusivity (423.73 K) [m2/s] | thermal diffusivity (448.23 K) [m2/s] | thermal diffusivity (473.1 K) [m2/s] | thermal diffusivity (498.16 K) [m2/s] | thermal diffusivity (523.18 K) [m2/s] | thermal diffusivity (448.09 K) [m2/s] | thermal diffusivity (448.57 K) [m2/s] | thermal diffusivity (473.26 K) [m2/s] | SMILES
1 | 5.83e-08 ± 3e-09 | 5.23e-08 ± 2.2e-09 | 4.87e-08 ± 2e-09 | 4.58e-08 ± 3.4e-09 | 4.25e-08 ± 2.6e-09 |  |  |  | CCCCCCCCCCCC [dodecane]
2 |  |  |  |  |  | 6.57e-08 ± 3.4e-09 | 6.73e-08 ± 4.3e-09 | 6.86e-08 ± 8e-09 | CCCCCCCCCCCCCCCCCCCCCCCCCCCCCCCCCCCCCCCC [tetracontane]
